This series concerns the target T1, CYP21 (steroid 21-hydroxylase) (Homo sapiens, UniProt P08686).
T1 sequence (P08686 whole entry): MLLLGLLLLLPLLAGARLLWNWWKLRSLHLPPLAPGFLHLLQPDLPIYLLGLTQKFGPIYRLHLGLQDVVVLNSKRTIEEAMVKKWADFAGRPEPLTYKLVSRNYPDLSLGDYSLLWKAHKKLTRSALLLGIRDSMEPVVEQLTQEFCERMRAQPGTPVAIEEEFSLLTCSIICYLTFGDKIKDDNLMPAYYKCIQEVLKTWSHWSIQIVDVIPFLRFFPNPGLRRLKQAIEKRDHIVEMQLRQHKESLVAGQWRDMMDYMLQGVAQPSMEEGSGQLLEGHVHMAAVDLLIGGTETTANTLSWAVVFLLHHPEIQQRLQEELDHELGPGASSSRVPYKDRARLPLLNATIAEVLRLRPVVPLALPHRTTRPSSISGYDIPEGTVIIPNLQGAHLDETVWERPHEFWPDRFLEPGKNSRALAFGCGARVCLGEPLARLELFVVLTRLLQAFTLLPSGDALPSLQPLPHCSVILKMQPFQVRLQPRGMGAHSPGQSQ
Nature of the series: Inhibition of human CYP21 transfected in HEK293 cells assessed as decrease in conversion of progesterone to 11-deoxycorticosterone preincubated for 5 hrs followed by progesterone addition measured after 20 hrs by ELISA. The class given is cell-based. On the set-up: concentration or dose not given beside the values. The settings on record: HEK293 cells transfected with human CYP21, probe progesterone.

This is an account of results in ChEMBL document CHEMBL3882724 (2013).

Each structure is given as a SMILES string. A value given as a limit tells only on which side of the number the result lay.

The inhibition is the share of the control response that was lost under treatment. As for `CO[C@H]1CC[C@@]2(C)[C@@H](CC[C@@H]3[C@@H]2CC[C@]2(C)C(c4cnccc4C)=CC[C@@H]32)C1`, the inhibition at 20 h is 10 to 50%.

For the compound `CCc1cncc(C2=CC[C@H]3[C@@H]4CC[C@H]5C[C@@H](OC)CC[C@]5(C)[C@H]4CC[C@]23C)c1`, the inhibition at 20 h lay in the range of 10 to 50%.

Turning to `CC(C)(C)NC(=O)O[C@H]1CC[C@@]2(C)C(=CC[C@H]3C4=CC=C(c5cccnc5)[C@@]4(C)CC[C@@H]32)C1`, the inhibition at 20 h is 10 to 50%.

Turning to `CC(C)C(=O)O[C@H]1CC[C@@]2(C)C(=CC[C@H]3C4=CC=C(c5cccnc5)[C@@]4(C)CC[C@@H]32)C1`, the inhibition at 20 h is 10 to 50%.

As to `CC1C[C@@H]2[C@H](CC[C@]3(C)C(c4cccnc4)=CC[C@@H]23)[C@@]2(C)C=C/C(=N\O)C=C12` (stereo not given in full), the inhibition at 20 h lay in the range of 10 to 50%.

For the compound `CC1(O)C=C2CC[C@@H]3[C@H](CC[C@]4(C)C(c5cccnc5)=CC[C@@H]34)[C@@]2(C)CC1` (stereo not given in full), the inhibition at 20 h is 10 to 50%.

For the compound `CC1(C)C2=CC[C@@H]3[C@H](CC[C@]4(C)C(c5cccnc5)=CC[C@@H]34)[C@@]2(C)CCC1O` (stereo not given in full), the inhibition at 20 h was below 10%.

As for `C[C@]12CC[C@H]3[C@@H](CC=C4C[C@@H](OC(=O)Nc5cccnc5)CC[C@@]43C)C1=CC=C2c1cccnc1`, the inhibition at 20 h was 10 to 50%.

As for `Cc1ccccc1C(=O)O[C@H]1CC[C@@]2(C)C(=CC[C@H]3C4=CC=C(c5cccnc5)[C@@]4(C)CC[C@@H]32)C1`, the inhibition at 20 h was 10 to 50%.

As to `CC[C@@]1(O)CC[C@@]2(C)C(CC[C@@H]3[C@@H]2CC[C@]2(C)C(c4cccnc4)=CC[C@@H]32)C1` (stereo not given in full), the inhibition at 20 h was below 10%.

As to `C[C@]12CC[C@H]3[C@@H](CCC4=CC(=O)CC[C@@]43C)C1=CC=C2c1cncc(Cl)c1`, the inhibition at 20 h is 10 to 50%.

Regarding `CC(=O)NC1CC[C@@]2(C)C(CC[C@@H]3[C@@H]2CC[C@]2(C)C(c4cccnc4)=CC[C@@H]32)C1C` (stereo not given in full), the inhibition at 20 h is below 10%.

Consider `Cc1cncc(C2=CC=C3[C@@H]4CCC5CNC(=O)CC[C@]5(C)[C@H]4CC[C@]23C)c1` (stereo not given in full), for which the inhibition at 20 h lay in the range of 10 to 50%.

With `CCNC(=O)NC1CC[C@@]2(C)C(=CC[C@@H]3[C@@H]2CC[C@]2(C)C(c4cncc(OC)c4)=CC[C@@H]32)C1` (stereo not given in full), the inhibition at 20 h was in the range of 10 to 50%.

As to `C[C@]12CC[C@H]3[C@@H](CC4OC45C[C@@H](O)CC[C@]35C)C1=CC=C2c1cccnc1` (stereo not given in full), the inhibition at 20 h is at least 50%.

With `CC1C[C@@H]2[C@H](CC[C@]3(C)C(c4cccnc4)=CC[C@@H]23)[C@@]2(C)CC[C@](C)(O)CC12` (stereo not given in full), the inhibition at 20 h was 10 to 50%.

For `C[C@]12CCC(=O)C=C1C(C1CC1)C[C@@H]1[C@@H]2CC[C@]2(C)C(c3cncc(F)c3)=CC[C@@H]12` (stereo not given in full), the inhibition at 20 h lay within 10 to 50%.

As for `CCc1ccncc1C1=CC=C2[C@@H]3CCC4C[C@@H](O)CC[C@]4(C)[C@H]3CC[C@]12C` (stereo not given in full), the inhibition at 20 h is below 10%.

As for `CC1C[C@@H]2[C@H](CC[C@]3(C)C(c4cncc(C(F)F)c4)=CC[C@@H]23)[C@@]2(C)CCC(=O)C=C12` (stereo not given in full), the inhibition at 20 h was 10 to 50%.

In the case of `C[C@]12CC[C@H]3[C@@H](CC(=O)C45CC4CC[C@]35C)C1=CC=C2c1cccnc1` (stereo not given in full), the inhibition at 20 h was at least 50%.

In the case of `CC1C[C@H]2C3=CC=C(c4ccc(F)nc4)[C@@]3(C)CC[C@@H]2[C@@]2(C)CCC(=O)C=C12` (stereo not given in full), the inhibition at 20 h is 10 to 50%.

As to `Cc1ccncc1C1=CC=C2[C@@H]3CCC4CC(=O)CC[C@]4(C)[C@H]3CC[C@]12C` (stereo not given in full), the inhibition at 20 h lay in the range of 10 to 50%.

Take `C[C@]12CCC(=O)C=C1C(c1ccccc1)C[C@@H]1[C@@H]2CC[C@]2(C)C(c3cccnc3)=CC[C@@H]12` (stereo not given in full): the inhibition at 20 h was below 10%.

Turning to `C[C@]12CC[C@H]3[C@@H](CC=C4C[C@@H](OC(=O)c5ccccc5)CC[C@@]43C)C1=CC=C2c1cccnc1`, the inhibition at 20 h lay within 10 to 50%.

Consider `C[C@]12CCC3(CCC(=O)O3)CC1CC[C@@H]1[C@@H]2CC[C@]2(C)C(c3cccnc3)=CC[C@@H]12` (stereo not given in full), for which the inhibition at 20 h was below 10%.
